Laboratory results from paper PMC4060991, “The Human Orphan Nuclear Receptor Tailless (TLX, NR2E1) Is Druggable” (PLoS ONE, 2014).

How the values were obtained:
human RXRα LBD = biological target: T1, human RXRα LBD (Homo sapiens, UniProt P19793); assay: GAL4 DBD-RXRα LBD luciferase transactivation assay in HeLa cells; type: cell-based; details: 10 µM, 24 h, alone or in competition with 9-cis retinoic acid 100 nM
T1 construct: expressed in transfected cells; host or cells: HeLa
T1 sequence (P19793 225-462): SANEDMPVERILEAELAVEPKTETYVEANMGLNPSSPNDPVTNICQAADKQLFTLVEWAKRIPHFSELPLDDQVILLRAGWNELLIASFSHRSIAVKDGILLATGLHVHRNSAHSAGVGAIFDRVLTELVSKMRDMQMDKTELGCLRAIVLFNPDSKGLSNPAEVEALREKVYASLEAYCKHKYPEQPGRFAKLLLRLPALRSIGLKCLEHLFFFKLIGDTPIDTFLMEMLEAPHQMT
Protocol: We cloned human RXRα LBD (residues 225–462) in the vector pBIND as described above. Transient co-transfections of HeLa cells with vectors encoding either Gal4DBD or Gal4 DBD-RXRα LBD fusion (both at 10 ng/well), pGL4.35 reporter gene (200 ng/well) and renilla luciferase gene (10 ng/well, internal control) were performed in batches of 10^5 cells seeded into 12-well tissue culture plates. The transfections were done using TransFectin Lipid Reagent (Biorad). Three hours after the transfections, cells were treated with either DMSO (0.1%, control) or compounds ccrp1, ccrp2 or ccrp3 at 10 µM, in the absence or the presence of 9-cis retinoic acid (RA, 100 nM). Following 24 h incubation, luciferase activities in each well were assessed as described above. Cells transfected with Gal4 DBD vector served as a control for RXR independent effects.

TLX LBD [1] = biological target: T2, TLX LBD (Homo sapiens, UniProt Q9Y466); assay: Differential scanning fluorimetry (DSF) on purified TLX LBD;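 also: thermal unfolding followed by Sypro-Orange fluorescence (excitation 465 nm, emission 610 nm) in 384-well plates, Tm taken from the first derivative of the denaturation curve, duplicate samples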; type: binding; parameters: cDNA fragments encoding human TLX LBD (a.a. 187–385) were cloned; His6 followed by TEV protease cleavage site (N); made in house; host or cells: E. coli BL21 (DE3) star; details: compound 500 µM; reference Tm 58.8±0.3°C with 5% DMSO
T2 sequence (Q9Y466 187-385): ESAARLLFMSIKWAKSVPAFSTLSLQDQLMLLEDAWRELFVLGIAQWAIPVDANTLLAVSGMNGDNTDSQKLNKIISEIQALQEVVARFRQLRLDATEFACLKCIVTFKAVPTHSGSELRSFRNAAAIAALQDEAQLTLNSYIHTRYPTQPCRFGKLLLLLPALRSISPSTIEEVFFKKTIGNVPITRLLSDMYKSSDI
Protocol: Protein stability was assessed with DSF in absence or presence of test compounds in a LightCycler 480 II qRT-PCR Detection System (Roche) in 384-well format. Sypro-Orange dye (Life Technologies) was used to monitor fluorescence, with filters for fluorescence excitation at 465 nm and for fluorescence emission at 610 nm. […] Each compound was tested in duplicates. The melting temperature (Tm) for each sample was deduced by the ThermoQ Analytical software (HMRI) from the first derivative of the corresponding denaturation curve generated by the LightCycler 480 software. […] All DSF-based analyses were performed using freshly purified protein.

human LXRβ LBD = biological target: T3, human LXRβ LBD (Homo sapiens, UniProt P55055); assay: DSF on purified LXRβ LBD; type: binding; details: compound 500 µM; unliganded Tm ∼39°C
T3 construct: human LXRβ LBD (Liver X Receptor beta, a.a. 226–460) was expressed; His6 followed by TEV protease cleavage site (N); made in house; host or cells: E. coli BL21 (DE3) star
T3 sequence (P55055 226-460): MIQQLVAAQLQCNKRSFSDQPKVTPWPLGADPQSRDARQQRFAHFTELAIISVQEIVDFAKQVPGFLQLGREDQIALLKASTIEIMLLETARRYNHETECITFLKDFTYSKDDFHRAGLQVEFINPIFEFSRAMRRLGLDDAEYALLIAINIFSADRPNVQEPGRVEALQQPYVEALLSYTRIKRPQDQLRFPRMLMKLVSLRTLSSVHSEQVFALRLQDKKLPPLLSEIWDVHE
Protocol: (§1) Protein stability was assessed with DSF in absence or presence of test compounds in a LightCycler 480 II qRT-PCR Detection System (Roche) in 384-well format. Sypro-Orange dye (Life Technologies) was used to monitor fluorescence, with filters for fluorescence excitation at 465 nm and for fluorescence emission at 610 nm. […] Tested sample mixtures were heated from 25°C to 96°C at a rate of 0.05°C/sec with 11 acquisitions per °C. Each compound was tested in duplicates. The melting temperature (Tm) for each sample was deduced by the ThermoQ Analytical software (HMRI) from the first derivative of the corresponding denaturation curve generated by the LightCycler 480 software. The same protocol was applied to investigate the stability of purified ERβ and LXRβ LBDs in presence or absence of the compounds. The optimal final concentrations for these experiments were 0.02 mg/mL for ERβ LBD and 0.20 mg/mL for LXRβ LBD. All DSF-based analyses were performed using freshly purified protein.

ERβ LBD = ERβ LBD (Homo sapiens, UniProt Q92731); assay: DSF on purified ERβ LBD; details: compound 500 µM; unliganded Tm ∼51°C
Chain of ERβ LBD (Q92731 261-530): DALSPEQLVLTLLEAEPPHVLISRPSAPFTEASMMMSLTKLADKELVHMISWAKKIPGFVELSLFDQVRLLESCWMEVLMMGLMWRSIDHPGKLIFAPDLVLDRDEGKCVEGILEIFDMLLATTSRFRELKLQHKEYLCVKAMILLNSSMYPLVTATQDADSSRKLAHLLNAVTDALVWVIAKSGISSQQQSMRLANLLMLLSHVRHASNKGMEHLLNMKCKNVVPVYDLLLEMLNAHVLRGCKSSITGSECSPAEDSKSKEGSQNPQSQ
Protocol: as §1

TLX LBD [2] = biological target: T2, TLX LBD; assay: Biolayer interferometry (Octet Red 384) direct binding to immobilized TLX LBD; parameters: cDNA fragments encoding human TLX LBD (a.a. 187–385) were cloned; His6 followed by TEV protease cleavage site (N); made in house; host or cells: E. coli BL21 (DE3) star; details: for association/dissociation behaviour (sensorgram): dose-response curves; for maximum binding response (plateau): highest concentrations tested, expected maximum 0.08–0.1 nm for 1:1
Protocol: Cloning was accomplished with a standard double digest cloning protocol after PCR according to manufacturer’s protocol (Avidity), and the plasmid was sequenced (ACGT, Inc). […] A duplicate set of sensors which serve as reference surfaces were incubated in […] solution of blocked biotinylated Streptavidin protein (Scripps Laboratories) to a loading signal of about 5.5 nm as described by manufacturer’s protocol (FortéBio). Binding of the individual compounds (100 µM) or 1% DMSO (solvent control) was measured over immobilized TLX LBD target biosensors and reference surfaces. Corrected binding response sensorgrams were recorded and analyzed. Data analysis on the FortéBio Octet RED instrument was performed using the FortéBio data analysis software. The analysis accounts for non-specific binding, background, and signal drift and minimizes well based and sensor variability.
The corresponding equilibrium dissociation constants (KD) were determined using steady state analysis of compounds binding affinities, assuming 1∶1 ligand - protein stoichiometry.

COUP-TFII LBD = biological target: T4, COUP-TFII LBD (Homo sapiens, UniProt P24468); assay: GAL4 DBD-COUP-TFII LBD luciferase transactivation assay in HeLa cells; type: cell-based; details: 10 µM, 24 h, alone or in competition with 9-cis retinoic acid 5 µM
T4 construct: expressed in transfected cells; host or cells: HeLa
T4 sequence (P24468 177-403 limits assumed): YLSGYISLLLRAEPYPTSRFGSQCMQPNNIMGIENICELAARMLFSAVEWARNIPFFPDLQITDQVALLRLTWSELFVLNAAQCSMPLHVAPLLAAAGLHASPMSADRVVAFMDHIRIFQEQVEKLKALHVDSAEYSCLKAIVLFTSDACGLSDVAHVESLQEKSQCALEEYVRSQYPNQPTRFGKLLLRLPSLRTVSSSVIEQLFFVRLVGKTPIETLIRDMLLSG
Protocol: For the transactivation assays with the GAL4 DBD-COUP-TFII LBD plasmid ([28], gift from Dr. H. Eric Xu, Van Andel Institute), we transiently transfected in batches of 10^5 HeLa cells seeded into 12-well tissue culture plates vectors encoding either Gal4 DBD or Gal4 DBD-COUP-TFII LBD fusion (both at 100 ng/well), pGL4.35 reporter gene (200 ng/well) and renilla luciferase gene (100 ng/well, internal control). At 24 h after the transfections, cells were treated with either DMSO (0.1%, control) or compounds ccrp1, ccrp2 or ccrp3 at 10 µM, in the absence or the presence of 9-cis retinoic acid (RA, 5 µM). Following 24 h incubation, luciferase activities in each well were assessed as described above. Cells transfected with Gal4 DBD vector served as a control for COUP-TFII independent effects.

| Compound | effect on RXRα luciferase activity (human RXRα LBD) | melting temperature (Tm) of TLX LBD in presence of compound (TLX LBD [1]) | melting temperature shift of LXRβ LBD (human LXRβ LBD) | melting temperature shift of ERβ LBD (ERβ LBD) | association/dissociation behaviour (sensorgram) (TLX LBD [2]) | maximum binding response (plateau) (TLX LBD [2]) | effect on COUP-TFII luciferase activity (COUP-TFII LBD) |
| --- | --- | --- | --- | --- | --- | --- | --- |
| CC(C)c1c(CN(C)C(C)Cc2ccccc2)n(C)n(-c2ccccc2)c1=O (stereo not drawn) [ccrp1, Famprofazone] | No effect on luciferase activity was detected | 53.04±0.3 °C | Neither compound demonstrates any significant effect on the melting temperatures | Neither compound demonstrates any significant effect on the melting temperatures | quick association and dissociation | 0.04 nm | No effect on luciferase activity was detected |
| CC(=O)[C@H]1CC[C@H]2[C@@H]3C=CC4=CC(=O)CC[C@@]4(C)[C@@H]3CC[C@]12C [ccrp3, Dydrogesterone] | No effect on luciferase activity was detected | 55.78±0.3 °C | Neither compound demonstrates any significant effect on the melting temperatures | Neither compound demonstrates any significant effect on the melting temperatures | quick association and dissociation | 0.06–0.1 nm | No effect on luciferase activity was detected |
| Cc1cc(C(=O)N2CCN(C(c3ccccc3)c3ccccc3)CC2)nn1C [ccrp2, 1-(1,5-dimethylpyrazole-3-carbonyl)-4-(diphenylmethyl)piperazine] | No effect on luciferase activity was detected | 52.49±1.1 °C | Neither compound demonstrates any significant effect on the melting temperatures | Neither compound demonstrates any significant effect on the melting temperatures | quick association and dissociation | 0.06–0.1 nm | No effect on luciferase activity was detected |
